{"source": "patent US20160228452A1", "about": "“TREATMENT OF METABOLIC DISEASES BY INHIBTION OF HTR2A OR HTR3” (Korea Advanced Institute of Science and Technology, priority 2014, published 2016)", "key": {"[1]": {"molecular_target": "T1, Htr2a (Mus musculus, UniProt P35363)", "T1 sequence (P35363 whole entry)": "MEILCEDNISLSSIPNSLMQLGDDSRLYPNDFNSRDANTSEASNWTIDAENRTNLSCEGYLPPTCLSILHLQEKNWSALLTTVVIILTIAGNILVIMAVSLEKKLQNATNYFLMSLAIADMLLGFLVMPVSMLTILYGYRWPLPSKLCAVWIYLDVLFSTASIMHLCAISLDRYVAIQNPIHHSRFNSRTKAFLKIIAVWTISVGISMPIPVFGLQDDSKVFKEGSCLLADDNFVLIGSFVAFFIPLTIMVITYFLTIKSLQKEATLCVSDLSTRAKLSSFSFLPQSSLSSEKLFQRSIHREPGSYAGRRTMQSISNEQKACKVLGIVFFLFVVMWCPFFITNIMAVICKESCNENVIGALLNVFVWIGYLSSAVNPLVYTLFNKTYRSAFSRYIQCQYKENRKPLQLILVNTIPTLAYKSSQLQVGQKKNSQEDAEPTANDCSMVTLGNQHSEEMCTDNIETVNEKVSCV", "assay": "Glycerol release assay (lipolysis) in 3T3-L1 mature adipocytes", "format": "cell-based, murine", "conditions": "24 h", "description": "(§1) Murine 3T3-L1 cells (American Type Culture Collection) were cultured in DMEM supplemented with 10% fetal calf serum and 100 μg/mL P/S in a humidified atmosphere of 5% CO2 at 37° C. Two days after reaching confluence, the cells were induced to differentiate using medium supplemented with 0.5 mM IBMX, […] and 1 μM dexamethasone (day 0). After two days, the medium was replaced with DMEM supplemented with […] in 10% FBS and P/S (day 2), and it was changed every two days from days 4 to 8.\nLipolysis was measured as the rate of glycerol release using a free glycerol reagent (Sigma) following the manufacturer's protocol. Briefly, fully differentiated 3T3-L1 adipocytes in a 24-well plate were incubated with 5-HT or DOI in Krebs Ringer phosphate buffer (136 mM NaCl, 4.7 mM KCl, 10 mM NaPO4, 0.9 mM MgSO4, and 0.9 mM CaCl2) containing 4% fatty acid-free bovine serum albumin (Sigma) for 24 h. Isoproterenol was used as a positive control. After incubation, 10 μL of the cell culture supernatant was mixed with 0.8 mL of the free glycerol reagent, and the mixture was then incubated at 37° C. for 5 min. The absorbance of the sample was determined at 540 nm using a spectrophotometer (DU730 Life Science UV/Vis, Beckman Coulter, Indianapolis, Ind., USA). The amount of released glycerol was expressed relative to the cellular protein content."}, "[2]": {"molecular_target": "T1, Htr2a", "assay": "Real-time PCR of lipogenic genes in 3T3-L1 mature adipocytes", "format": "cell-based, murine", "description": "as §1\n(§2) Total RNA was extracted from the mouse tissues or cell lines using TRIzol reagent (Invitrogen) according to the manufacturer's protocol. After TURBO DNase (Invitrogen) treatment, 2 μg of total RNA was used to generate complementary DNA with Superscript III reverse transcriptase (Invitrogen). To analyze gene expression, real-time PCR was performed with a ViiA 7 Real-Time PCR system (Applied Biosystems) and the Power SYBR Green PCR master mix (Applied Biosystems). Relative quantification was based on the ddCt method, and ActB was used as an endogenous control (internal control)."}, "[3]": {"system": "SV cells from Tph1 FKO mice", "assay": "Ex vivo differentiation of SVF from BAT of Tph1 FKO mice, Ucp1 mRNA", "format": "cell-based", "conditions": "after 8 days of differentiation", "description": "The stromal vascular fraction of epididymal, inguinal and BAT from 6- to 7-week-old mice was separated by collagenase digestion. Briefly, the adipose tissues were dissected, minced and digested with 0.2% collagenase A (Roche) in Hank's balanced salts solution (Sigma) for 45 min at 37° C. with constant shaking. Mature adipocytes and connective tissues were separated from the cell pellet by centrifugation at 800×g for 10 min at 4° C. The cell pellet was then suspended with RBC lysis buffer (Sigma) and filtered through a 40-μm mesh filter (BD bioscience). The pelleted stromal vascular cells (SVCs) were re-suspended in DMEM containing 10% FBS and seeded in 6-well plates for adipogenic differentiation.\nas §2"}, "[4]": {"molecular_target": "T1, Htr2a", "assay": "Oil Red O staining of 3T3-L1 adipocytes", "format": "cell-based, murine", "conditions": "treatment during differentiation, absorbance at 520 nm", "procedure": "Murine 3T3-L1 cells (American Type Culture Collection) were cultured in DMEM supplemented with 10% fetal calf serum and 100 μg/mL P/S in a humidified atmosphere of 5% CO2 at 37° C. Two days after reaching confluence, the cells were induced to differentiate using medium supplemented with 0.5 mM IBMX, 1 mg/mL insulin and 1 μM dexamethasone (day 0). After two days, the medium was replaced with DMEM supplemented with 1 mg/mL insulin in 10% FBS and P/S (day 2), and it was changed every two days from days 4 to 8. After full differentiation (day 8), 3T3-L1 adipocytes were fixed with 3.7% (w/v) formaldehyde in PBS for 15 min at room temperature and then washed three times with PBS. Then, the cells were stained with filtered Oil Red 0 solution (1.5 mg/mL 60% (v/v) isopropanol) for 30 min and then rinsed twice with distilled water. To quantify the amount of Oil Red 0 staining, the cells were eluted with 100% isopropranol for 10 min, and the absorbance densities of the extracts were measured at 520 nm using a VersaMax microplate reader (Molecular Devices, Sunnyvale, Calif., USA)."}, "[5]": {"molecular_target": "T2, Htr3 (Mus musculus, UniProt P23979)", "T2 construct": "we explored the direct actions of Htr3 on BAT using immortalized brown adipocytes (IBAs); endogenous in cells; host or cells: differentiated immortalized brown adipocytes (IBAs)", "T2 sequence (P23979 24-489)": "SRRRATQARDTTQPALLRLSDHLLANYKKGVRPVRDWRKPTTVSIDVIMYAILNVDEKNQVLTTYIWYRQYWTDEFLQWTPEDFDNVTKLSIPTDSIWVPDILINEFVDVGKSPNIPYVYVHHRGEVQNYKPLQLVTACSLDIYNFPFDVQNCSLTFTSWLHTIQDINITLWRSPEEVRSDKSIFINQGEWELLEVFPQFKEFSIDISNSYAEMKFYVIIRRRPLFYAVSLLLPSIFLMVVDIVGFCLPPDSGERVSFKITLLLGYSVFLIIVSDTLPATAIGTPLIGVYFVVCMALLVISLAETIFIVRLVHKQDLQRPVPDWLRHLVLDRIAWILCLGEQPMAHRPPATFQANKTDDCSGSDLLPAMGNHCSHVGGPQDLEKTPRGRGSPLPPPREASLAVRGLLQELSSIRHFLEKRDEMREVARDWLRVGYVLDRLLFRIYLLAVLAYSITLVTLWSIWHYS", "T2 sequence (Q9JHJ5 22-437 partner)": "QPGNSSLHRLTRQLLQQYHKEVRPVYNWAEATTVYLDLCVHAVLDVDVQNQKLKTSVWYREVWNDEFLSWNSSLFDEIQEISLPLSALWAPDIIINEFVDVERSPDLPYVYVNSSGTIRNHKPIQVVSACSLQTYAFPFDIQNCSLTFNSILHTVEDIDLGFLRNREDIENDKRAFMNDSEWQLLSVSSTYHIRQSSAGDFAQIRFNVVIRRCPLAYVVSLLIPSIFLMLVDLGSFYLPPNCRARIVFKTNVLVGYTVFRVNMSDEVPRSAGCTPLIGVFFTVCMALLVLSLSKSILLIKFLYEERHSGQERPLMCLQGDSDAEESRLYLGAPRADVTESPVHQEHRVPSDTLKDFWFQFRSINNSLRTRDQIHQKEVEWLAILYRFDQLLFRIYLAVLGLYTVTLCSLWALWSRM", "assay": "Western blot for phosphorylation of PKA pathway components in IBAs", "format": "cell-based", "conditions": "IBAs pretreated with ondansetron, in the presence of β3-adrenergic receptor agonist", "description": "(§3) IBAs were cultured in DMEM supplemented with 10% FBS and P/S in a humidified atmosphere of 5% CO2 at 37° C.^32. After reaching 95% confluence, the cells were induced to differentiate using DMEM with 10% FBS, 0.5 μg/mL insulin, 1 nM T3, 0.125 mM indomethacin, 2 μg/mL dexamethasone, 0.5 μM IBMX and P/S (day 0). After two days, the medium was replaced with DMEM supplemented with 10% FBS, 0.5 μg/mL insulin, 1 nM T3 and P/S (day 2), and it was changed every two days from days 4 to 8. We confirmed that these cell lines are free from Mycoplasma infection.\nWhole-cell lysates were extracted by incubating cells in RIPA buffer (25 mM Tris-HCl pH 7.6, 150 mM NaCl, 1% NP-40, 1% sodium deoxycholate, 0.1% SDS) plus protease inhibitors (Roche). Supernatant was collected following a brief centrifuge, and protein concentrations in the supernatant were determined using the BCA Protein Assay Kit (Thermo Scientific, Rockford, Ill., USA). The cell lysates were then mixed with equal volumes of 2× Laemmli buffer (4% SDS, 20% glycerol, 10% 2-mercaptoethanol, 0.01% bromophenol blue, and 120 mM Tris-HCl, pH 6.8) and boiled for 5 min at 95° C. Then, the protein samples were separated by SDS-PAGE and transferred to a PVDF membrane (Millipore). […]"}, "[6]": {"molecular_target": "T2, Htr3", "assay": "Real-time PCR of thermogenic genes in IBAs", "format": "cell-based", "conditions": "2 h after ondansetron treatment", "description": "as §3, §2"}, "[7]": {"molecular_target": "T2, Htr3", "assay": "OCR assay (Seahorse XF24) in IBAs", "format": "cell-based", "conditions": "fully differentiated IBAs pretreated 30 min, then β3 agonist CL-316243", "description": "IBAs were cultured in DMEM supplemented with 10% FBS and P/S in a humidified atmosphere of 5% CO2 at 37° C.^32. After reaching 95% confluence, the cells were induced to differentiate using DMEM with 10% FBS, 0.5 μg/mL insulin, 1 nM T3, 0.125 mM indomethacin, 2 μg/mL dexamethasone, 0.5 μM IBMX and P/S (day 0). After two days, the medium was replaced with DMEM supplemented with 10% FBS, 0.5 μg/mL insulin, 1 nM T3 and P/S (day 2), and it was changed every two days from days 4 to 8. […] The OCRs of the cells were measured using a Seahorse XF analyzer (Seahorse Bioscience, Billerica, Mass., USA). After seeding IBAs on an XF-24 plate, the cells were incubated and differentiated using the protocol described above. Fully differentiated IBAs were pre-treated with PBS and ondansetron for 30 min. Then, the IBAs were treated with the β3 agonist (CL-316243) and the mitochondrial inhibitors oligomycin and rotenone/antimycin. The OCRs were calculated and recorded by a sensor cartridge and the Seahorse XF-24 software."}, "[8]": {"molecular_target": "T2, Htr3", "assay": "cAMP assay (competitive ELISA) in immortalized brown adipocytes", "format": "cell-based", "description": "as §3\nDifferentiated IBAs were treated with 1 uM ondansetron or 100 nM m-CPBG or 1 uM CL-316243 for 15 min. 1 uM […] was used as a positive control. The cAMP competitive ELISA (Promega) was performed according to the manufacturer's instruction. Briefly, cAMP was extracted by adding 0.1 M HCl with 0.5% triton X-100 to the cells. After centrifugation at 600 g for 10 min, the supernatant was used for the determination of cAMP levels by competitive cAMP ELISA."}}, "note": "“Also recorded” adds a separate entry of the source.", "data": [{"molecule": "COc1cc(CC(C)N)c(OC)cc1I", "note": "(stereo not shown) [DOI, 2,5-dimethoxy-4-iodoamphetamine]", "values": [{"measurement": "glycerol release (lipolysis)", "setting": "[1]", "value": "suppressed lipolysis; also recorded: reduced the glycerol release"}, {"measurement": "mRNA levels of lipogenic genes", "setting": "[2]", "value": "increased"}]}, {"molecule": "NCCc1c[nH]c2ccc(O)cc12", "note": "[5-HT, 5-hydroxytryptamine]", "values": [{"measurement": "glycerol release (lipolysis)", "setting": "[1]", "value": "suppressed lipolysis; also recorded: reduced the glycerol release"}, {"measurement": "Ucp1 mRNA level", "setting": "[3]", "value": "abrogated; also recorded: suppressed"}]}, {"molecule": "O=C(c1ccc(F)cc1)C1CCN(CCn2c(=O)[nH]c3ccccc3c2=O)CC1", "note": "[ketanserin, 3-{2-[4-(4-fluorobenzoyl)piperidin-1-yl]ethyl}quinazoline-2,4(1H,3H)-dione]", "values": [{"measurement": "lipogenesis (optical density of Oil Red O extract)", "setting": "[4]", "value": "decreased lipogenesis; also recorded: reduced the optical density of the extract"}]}, {"molecule": "Cc1nccn1CC1CCc2c(c3ccccc3n2C)C1=O", "note": "(racemic) [ondansetron, (RS)-9-methyl-3-[(2-methyl-1H-imidazol-1-yl)methyl]-2,3-dihydro-1H-carbazol-4(9H)-one]", "values": [{"measurement": "phosphorylation of HSL and PKA substrate (PKA pathway components) after β3AR stimulation", "setting": "[5]", "value": "increased phosphorylation"}, {"measurement": "mRNA expression of thermogenic genes (Ucp1, Ppargc1a)", "setting": "[6]", "value": "increased"}, {"measurement": "oxygen consumption rate (OCR)", "setting": "[7]", "value": "increased the OCR synergistically; also recorded: increased the oxygen consumption rate"}, {"measurement": "cAMP level after β3AR stimulation", "setting": "[8]; IBAs pretreated with 1 uM ondansetron, in the presence of β3-adrenergic receptor agonist CL 316243", "value": "increased cAMP levels"}, {"measurement": "cAMP level in the absence of β3AR agonist", "setting": "[8]; IBAs, 1 uM ondansetron or 100 nM m-CPBG, 15 min", "value": "did not affect cAMP levels"}]}]}
